Measurements published in article PMC5607265, “Design, synthesis and structure-activity relationship of 3,6-diaryl-7H-[1,2,4]triazolo[3,4-b][1,3,4]thiadiazines as novel tubulin inhibitors” (Scientific Reports, 2017).
“Also recorded” adds a separate entry of the source.

Assays:
[1] = system: tubulin network of SGC-7901 cells; experiment: Immunofluorescence of tubulin network; type: cell-based, human; settings: 2-fold IC50 (0.022 µM), 12 h
Protocol: CA-4 was employed as positive control in this experiment.
Figure 4 Effects of 6i on tubulin network of SGC-7901 cells by immunofluorenscence. […] The left and middle panels represent the tubulin assembly stained with DAPI and FITC and the right panel represents a merge of the corresponding left and middle panels.
The SGC-7901 cells were seeded at a density of 1 × 10^4 per well on a 24-well plate and grown for 24 h. […] Cells in the control group were treated with culture medium. The control and treated cells were fixed with 4% formaldehyde in PBS for 30 min at -20 °C, then washed twice with PBS and permeabilized with 0.1% (v/v) Triton X-100 in PBS for 5 min. Then, the cells were blocked with 3% bovine serum albumin (BSA) in PBS for 30 min. […] The cells were washed with PBS to remove unbound secondary antibody, nucleus was stained with 4,6-diamino-2-phenolindol dihydrochloride (DAPI) and then, immunofluorescence was detected using a fluorescence microscope (Olympus, Tokyo, Japan).
Immunostaining was carried out to detect microtubule associated tubulin protein after exposure to 6i and CA-4. […] The cells were washed with PBS to remove unbound secondary antibody, nucleus was stained with 4,6-diamino-2-phenolindol dihydrochloride (DAPI) and then, immunofluorescence was detected using a fluorescence microscope (Olympus, Tokyo, Japan).

[2] = target: colchicine-binding site on tubulin (Sus scrofa, UniProt P02554); experiment: Competitive tubulin-binding assay (colchicine); settings: 5.0 µM colchicine; compound 1.6, 5.0, 15.0 µM
Protocol: To confirm whether these designed compounds could bind to the colchicine site on tubulin, compound 6i was investigated for its ability of competitive inhibition of colchicine binding[39],[40]. CA-4 and paclitaxel were used as a positive and a negative control, respectively.
Figure 6 Competitive binding of 6i to colchicine-binding site on tubulin.
For the colchicine competitive binding assay, tubulin was co-incubated with indicated concentrations of MPSP-001 and paclitaxel at 37 °C for 1 h. Then colchicine was added to a final concentration of 5 μmol L^−1. Fluorescence was determined using a Hitachi F-2500 spectrofluorometer (Tokyo, Japan) at the excitation wavelength of 365 nm and the emission wavelength of 435 nm. Blank values (buffer alone) as the background were subtracted from all samples. […] Paclitaxel, not binding in the colchicine site of tubulin, was added as a negative control. The experiments were repeated at least three times.
(5). Competitive tubulin-binding assay. For the colchicine competitive binding assay, tubulin was co-incubated with indicated concentrations of MPSP-001 and paclitaxel at 37 °C for 1 h. Then colchicine was added to a final concentration of 5 μmol L^−1. Fluorescence was determined using a Hitachi F-2500 spectrofluorometer (Tokyo, Japan) at the excitation wavelength of 365 nm and the emission wavelength of 435 nm. […]

[3] = system: lung adenocarcinoma A549 cells; experiment: MTT antiproliferative assay, A549; type: cell-based, human; settings: Homo sapiens, A549; MTT assay, 24 h exposure, triplicate; read-out: IC50 A549
Protocol: (§1) The SGC-7901, A549 and HT-1080 cell lines were purchased from the American Type Culture Collection (ATCC, Manassas, VA, USA). […] Briefly, approximately 3 × 10^4 cells were seeded in a 96-well plate. After 24 h of incubation at 37 °C, cells were exposed to compounds of differing concentrations for 24 h. After treatment, cells were washed with 1X PBS followed by addition of 100 µL of 0.05% MTT reagent to each well, followed by incubation for 4 h at 37 °C. After incubation, the supernatant from each well was carefully removed and the formazan crystals were dissolved in 100 µL of DMSO. The colour density was measured spectrophotometrically at 490 nm using a microplate reader (SpectraMax Plus384, Molecular Devices Corp., USA). The data were calculated and plotted as percent viability compared to control.
as §1

SGC-7901 cells = experiment: Cell cycle analysis by flow cytometry; type: cell-based, human; settings: for cell cycle arrest: SGC-7901, 12 h, 6i 0.011, 0.022, 0.044 µM, CA-4 0.022 µM
Protocol: Thus, the effect of compound 6i on the cell cycle progression of the SGC-7901 cells was investigated by flow cytometry analysis (Fig. 5). […] Compound 6i could arrest cell cycle distribution at the G2/M phase in a dose-dependent manner.
Figure 5 Compound 6i affects the cell cycle progression in SGC-7901 cells.
Cell cycle analysis studies were performed by following a previously reported method. […] The cells were collected by centrifugation, washed with PBS and fixed in ice-cold 70% ethanol. The fixed cells were harvested by centrifugation and resuspended in 500 µl of PBS containing 1 mg/mL RNase. After 30 min of incubation at 37 °C, the cells were stained with […] propidium iodide (PI) at 4 °C in the dark for 30 min. The samples were then analyzed by FACScan flow cytometry (Becton-Dickinson, Franklin Lakes, NJ, USA). The experiments were repeated at least three times.
The cells were collected by centrifugation, washed with PBS and fixed in ice-cold 70% ethanol. The fixed cells were harvested by centrifugation and resuspended in 500 µl of PBS containing 1 mg/mL RNase. After 30 min of incubation at 37°C, the cells were stained with […] propidium iodide (PI) at 4°C in the dark for 30 min. The samples were then analyzed by FACScan flow cytometry (Becton-Dickinson, Franklin Lakes, NJ, USA). The experiments were repeated at least three times.
Figure S1 Compound 6i induced G2/M phase arrest in a time-dependent manner. SGC-7901 cells were treated with 6i (0.022 µM) for time 12, 24, 36, 48 and 60 h, then stained with PI and subjected to flow cytometric analysis.

[4] = system: SGC-7901, A549 and HT-1080 cell lines; experiment: MTT antiproliferative assay, span over the three cell lines; type: cell-based, human; settings: MTT assay; for IC50: Homo sapiens, range over SGC-7901, A549 and HT-1080, read-out: IC50 range against the three human cancer cell lines
Protocol: as §1, §1

Row | Compound | effect on microtubule/tubulin network [1] | competition with colchicine: fluorescence of colchicine-tubulin complex [2] | IC50 [3] [nM] | cell cycle arrest (SGC-7901 cells) | IC50 [4] [nM] | apoptosis after G2/M arrest (sub-G1) (SGC-7901 cells; SGC-7901, 6i 0.022 µM, 12-60 h) | antiproliferative activity in words ([4]; SGC-7901, A549 and HT-1080)
1 | COc1ccc(/C=C\c2cc(OC)c(OC)c(OC)c2)cc1O [CA-4, Combretastatin A-4, reference compound] | the tubulin network showed a disruption | fluorescence of a colchicine-tubulin complex was reduced | 9 | potent cell cycle arrests in G2/M phase | 9 to 13 |  | 
2 | COc1cccc(-c2nnc3n2N=C(c2ccc(OC)c(N)c2)CS3)c1 [Compound 6i, 3-(3-Methoxyphenyl)-6-(3-amino-4-methoxyphenyl)-7H-[1,2,4]triazolo[3,4-b][1,3,4]thiadiazine] | the tubulin network showed a disruption | fluorescence of a colchicine-tubulin complex was reduced | 15 | induced cell arrest in G2/M phase from 0 to 12 h; also recorded: potent cell cycle arrests in G2/M phase | 11 to 15 | sub-G1 phase increase from 24 to 60 h; also recorded: cause subsequent apoptosis after G2/M arrest | nanomolar IC50 values against all tested cells; also recorded: IC50 values at the nanomolar level
